Measured values published in patent US20240132431A1, “METHOD FOR ALKYLATING ACIDIC FUNCTIONAL GROUP” (Chugai Seiyaku Kabushiki Kaisha, priority 2021, published 2024).

Target: T1, Bcl-2 protein (Recombinant Human Bcl-2 Protein) (Homo sapiens, UniProt P10415)
T1 construct: purchased Novus NBP2-34889
Experiment: Binding evaluation of mixture library compounds to Bcl-2 using AS-MS (affinity selection mass spectrometry)
Conditions: for ASMS ratio (%) n = 1: replicate n = 1; for ASMS ratio (%) n = 1 / ASMS ratio (%) n = 2: ASMS Ratio(%)=(A−C)/B×100; for ASMS ratio (%) n = 2: replicate n = 2
How it was run: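 Bcl-2 binding is scored from LC/MS signal retained with protein through gel-filtration spin columns, normalised to unfiltered and protein-free controls. Incubation: 20 μM protein, […] per compound, 1 h, 23° C.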

[1] = AS-MS on the mixture of 1200 library compounds
[2] = AS-MS, mixture of 1200 compounds, Bcl-2

T1 sequence (P10415 whole entry): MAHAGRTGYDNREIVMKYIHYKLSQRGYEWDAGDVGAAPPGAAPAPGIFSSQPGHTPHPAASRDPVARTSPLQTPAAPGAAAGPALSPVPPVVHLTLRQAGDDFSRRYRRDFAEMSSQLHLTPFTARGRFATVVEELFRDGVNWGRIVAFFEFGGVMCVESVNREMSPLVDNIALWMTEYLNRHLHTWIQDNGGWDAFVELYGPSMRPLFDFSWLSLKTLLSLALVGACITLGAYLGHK

CCOc1cncc(-c2ccc(C(C)N3CCN(c4ccc(C(=O)NS(=O)(=O)CCC(F)(F)F)cc4)CC3)c(F)c2)c1 (centres unmarked) [B2N100-01, 4-[4-[1-[4-(5-Ethoxypyridin-3-yl)-2-fluorophenyl]ethyl]piperazin-1-yl]-N-(3,3,3-trifluoropropylsulfonyl)benzamide]
ASMS ratio (%) (n = 1): 0.0%
ASMS ratio (%) (n = 2): 0.0%

CCOc1cccc(-c2cc(OC)c(CN3CCN(c4ccc(C(=O)NS(=O)(=O)c5ccc(NCCSc6ccccc6)c([N+](=O)[O-])c5)cc4)CC3)c(OC)c2)c1 [B2Q059-01, 4-[4-[[4-(3-Ethoxyphenyl)-2,6-dimethoxyphenyl]methyl]piperazin-1-yl]-N-[3-nitro-4-(2-phenylsulfanylethylamino)phenyl]sulfonylbenzamide]
ASMS ratio (%) n = 1 (AS-MS, mixture library, Bcl-2): 9.8%
ASMS ratio (%) n = 2 (AS-MS, mixture library, Bcl-2): 7.0%

CCOc1cccc(-c2cc(CN3CCN(c4ccc(C(=O)N(C)CC56CC7CC(CC(C7)C5)C6)cc4)CC3)cc(OC(C)C)c2)c1 [B3A057-01, N-(1-Adamantylmethyl)-4-[4-[[3-(3-ethoxyphenyl)-5-propan-2-yloxyphenyl]methyl]piperazin-1-yl]-N-methylbenzamide]
ASMS ratio (%) n = 1 [1]: 6.3%
ASMS ratio (%) n = 2 [1]: 2.5%

6-[4-[[2-[2-(5-Ethoxypyridin-3-yl)ethynyl]phenyl]methyl]piperazin-1-yl]-N-propylpyridazine-3-carboxamide [B1M055-01]
ASMS ratio (%) n = 1 [2]: 3.9%
ASMS ratio (%) n = 2 [2]: −1.2%

6-[4-[[4-(5-Ethoxypyridin-3-yl)-2,6-dimethoxyphenyl]methyl]piperazin-1-yl]-N-propylpyridazine-3-carboxamide [B1M023-01]
ASMS ratio (%) n = 1 [2]: 1.4%
ASMS ratio (%) n = 2 [2]: −3.0%

CCOc1cccc(C#Cc2cncc(C(=O)N3CCN(c4ccc(C(=O)NCC56CC7CC(CC(C7)C5)C6)cc4)CC3)c2)c1 [B1A031-01, N-(1-Adamantylmethyl)-4-[4-[5-[2-(3-ethoxyphenyl)ethynyl]pyridine-3-carbonyl]piperazin-1-yl]benzamide]
ASMS ratio (%) n = 1 [2]: 6.9%
ASMS ratio (%) n = 2 [2]: −1.8%

CCOc1cccc(-c2cc(OC)c(CN3CCN(c4ccc(C(=O)NS(C)(=O)=O)cc4)CC3)c(OC)c2)c1 [B2I059-01]
ASMS ratio (%) (n = 1): 0.0%
ASMS ratio (%) (n = 2): 0.0%

CCOc1cccc(-c2ccc(CN3CCN(c4ccc(C(=O)NS(=O)(=O)CCC(F)(F)F)cc4)CC3)c3ccccc23)c1 [B2N065-01]
ASMS ratio (%) (n = 1): 0.0%
ASMS ratio (%) (n = 2): 0.0%

6-[4-[[2-(3-Ethoxyphenyl)phenyl]methyl]piperazin-1-yl]-N-propylpyridazine-3-carboxamide [B1M042-01]
ASMS ratio (%) n = 1 [2]: 0.0%
ASMS ratio (%) n = 2 [2]: 0.0%

CCOc1cncc(C#Cc2ccccc2C(=O)N2CCN(c3ccc(C(=O)NCC45CC6CC(CC(C6)C4)C5)cc3)CC2)c1 [B1A030-01, N-(1-Adamantylmethyl)-4-[4-[2-[2-(5-ethoxypyridin-3-yl)ethynyl]benzoyl]piperazin-1-yl]benzamide]
ASMS ratio (%) n = 1 [2]: 6.9%
ASMS ratio (%) n = 2 [2]: −1.8%

CCOc1cncc(-c2csc(C(=O)N3CCN(c4ccc(C(=O)NS(C)(=O)=O)nn4)CC3)c2)c1 [B2I002-01, 6-[4-[4-(5-Ethoxypyridin-3-yl)thiophene-2-carbonyl]piperazin-1-yl]-N-methylsulfonylpyridazine-3-carboxamide]
ASMS ratio (%) n = 1 (AS-MS, mixture library, Bcl-2): 0.0%
ASMS ratio (%) n = 2 (AS-MS, mixture library, Bcl-2): 0.0%

CCCNC(=O)c1ccc(N2CCN(Cc3ccccc3C#Cc3cncc(OCC)c3)CC2)cc1 [B1M054-01]
ASMS ratio (%) n = 1 [2]: 0.9%
ASMS ratio (%) n = 2 [2]: 0.0%

CCOc1cccc(-c2ccccc2CN2CCN(c3ccc(C(=O)Nc4ccc(OC)cc4)nn3)CC2)c1 [B1O071-01, 6-[4-[[2-(3-Ethoxyphenyl)phenyl]methyl]piperazin-1-yl]-N-(4-methoxyphenyl)pyridazine-3-carboxamide]
ASMS ratio (%) n = 1 [1]: 2.9%
ASMS ratio (%) n = 2 [1]: −1.1%
